Like-named read-outs stand apart in the source and are kept apart here.
Tests used:
clinical = assay: clinical; design: species or system human; settings: in vivo
Protocol: On days that PK samples are obtained, the patient should take BLZ945 during the clinic visit after the pre-dose PK samples and prior to post-dose PK samples, when instructed by the study staff. Patients should take BLZ945 on an empty stomach (i.e. fast from food and drink, except water) at least 1 hour before or 2 hours after a meal. Each dose should be taken with a glass of water. Patients should be instructed to swallow whole capsules and not to chew or open them.
The preliminary pharmacokinetics (PK) of single dose and multiple doses of oral BLZ945 when administered alone and in combination with spartalizumab has been assessed in the ongoing study CBLZ945X2101.

microglia = assay: Microglial depletion in SOD1G93A mice with b.i.d. dosing (RD-2019-00111); assay type: in vivo, SOD1G93A mouse; settings: 5 consecutive days
Protocol: (§1) Dosing was examined in the SOD1G93A mouse model of ALS, the most commonly used rodent ALS model (RD-2019-00111). Twice daily dosing (b.i.d.) was examined after 5 consecutive dosing days. Microglia were depleted in the cortex by approximately 25% and 75% following treatment with 50 mg/kg and 80 mg/kg BLZ945. BLZ945 dosed b.i.d. at 10 mg/kg was not effective (FIG. 10 A).
(§2) FIG. 10: BLZ945-mediated microglial depletion in the cortex, as assessed by Iba1/Aif-1 immunohistological staining (A) or in spinal cord by qPCR analysis (B) Values are group means±SD (n=3). (C and D) Exposure of BLZ945 in blood and CNS brain and spinal cord 3 hours after the final dose of the study.

CSF-1R = assay: Mouse CSF-1 levels in plasma as biomarker for CSF-1R inhibition (MC38 model); assay type: in vivo; settings: BLZ945 4 days on/3 days off, vs vehicle
Protocol: In order to measure increase of CSF1 in the plasma as a biomarker for CSF-1R inhibition blood sampling was performed at baseline and 6 hours later on indicated days (FIG. 4).
Mouse CSF-1 levels in plasma. A. Changes in CSF-1 levels over time in the different treatment groups. B. Statistical analysis of CSF-1 levels in vehicle vs. BLZ945 4 days on/3 days off and in vehicle vs. BLZ945 4 days on/3 days off in combination with anti-PD-1. Statistical significance was calculated using a two-tailed, unpaired, non-parametric Mann-Whitney Test was performed to compare treatment to control groups.

[1] = tested on: tumor associated macrophages (TAM) and Tregs; assay: Tumor infiltrating macrophages and Tregs by flow cytometry (MC38 model); assay type: in vivo, mouse; settings: BLZ945 4 days on/3 days off, single agent and with anti-PD-1
Protocol: In order to access the dynamics of the tumor associated immune cells a repeat study using only the 4 days on/3 days off schedule as a single agent and in combination with anti-PD-1 was performed.
FIG. 5 Analysis of tumor infiltrating macrophages (FIG. 5A) and Tregs (FIG. 5B) upon treatment with BLZ945 in a 4 days on/3 days off schedule on day 10 (A) and day 14 (B) and in combination with anti-PD-1 by flow cytometry. Statistical significance was calculated using a two-tailed, unpaired, non-parametric Mann-Whitney Test was performed to compare treatment to control groups.

Soluble TREM2 = Soluble TREM2 in plasma and CSF, 13-wk cynomolgus monkey study (1779034); assay type: in vivo; settings: for TREM2 plasma values: 7 days-on 7 days-off, mid- and high-doses; for decrease of soluble TREM2 in CSF: high dose
Protocol: In a preclinical 13-wk study (Study number 1779034), cynomolgus monkey were treated with 30, 60 and 200 mg/kg/day BLZ945 on daily oral dosing or at 60 and 200 mg/kg/day on 7 days-on and 7 days-off treatment cycles. With either regimen, the dosing period was for 91 days followed by a drug-free period up to a total of […]. Plasma was collected at pre-dose, during the dosing period at different time points and during the recovery time, and CSF was collected at necropsy at end of dosing and recovery periods. Soluble TREM2, a biomarker of microglial activation, was measured in plasma and CSF.

[2] = Blood and brain exposure in mice (RD-2019-00100); assay type: in vivo; settings: for Kp at 5 days: read-out: ratio of brain to blood exposures
Protocol: Several studies were performed to understand PK/PD relationships for CNS microglia clearance in mice. In the first study (RD-2019-00100) mice were treated once daily (qd) for between 1 and 5 consecutive days with a dose of 169 mg/kg BLZ945. Additionally, two dose groups received 169 mg/kg BLZ945 for 5 consecutive days followed by either 3 or 7 days of drug withdrawal (washout). […] Pharmacokinetic analysis was performed on blood and brain samples taken from each group at 3 hours after the final dose on the indicated necropsy day. […] Exposures dropped by more than 1000-fold following the washout period (FIG. 8 B).
FIG. 8: (A) Microglial depletion in the cortex, as assessed by Iba1/Aif-1 immunohistological staining at necropsy. Sections were analyzed for total number of microglia cell bodies per sample area. Values are group means±SD (n=3). (B) Exposure of BLZ945 in blood and brain 3 hours after the last dose on the day of necropsy. Values are group means (n=3).
In a follow-up study (RD-2019-00100), mice were treated with BLZ945 for 5 consecutive days with a range of doses from 7 to 169 mg/kg. The two lowest doses of 7 mg/kg and 20 mg/kg were ineffective for microglial depletion. […] Here the ratio of brain to blood exposures was approximately 30% at the four lowest doses and approximately 55% at the highest dose (FIG. 9 B).
FIG. 9: Dose-dependent reduction of microglia. (A) Mice were treated for 5 consecutive days with BLZ945 at the indicated doses. Samples were analyzed histologically by Iba1/Aif-1 staining and quantified for total microglia cell bodies per sample area. Data are group means±SD (n=3). (B) Exposure of BLZ945 in blood and brain following 5 consecutive days of dosing at multiple doses. Values are group means±SD (n=3).

[3] = Blood, brain and spinal cord exposure in SOD1G93A mice, b.i.d. dosing (RD-2019-00111); assay type: in vivo; settings: mouse, brain and spinal cord relative to blood, three hours after the final dose, read-out: brain and spinal cord drug exposure relative to blood
Protocol: as §1, §2

Which “mean accumulation index (Racc)” value (clinical; human) does the source give for `CNC(=O)c1cc(Oc2ccc3nc(N[C@@H]4CCCC[C@H]4O)sc3c2)ccn1` [BLZ945, 4-((2-(((1R,2R)-2-hydroxycyclohexyl)amino)benzo[d]thiazol-6-yl)oxy)-N-methylpicolinamide] here?
The value was 1.07-1.24.

And the AUC(0-t) (clinical; human, po, 150 mg)?
Its AUC(0-t) is 102 µg·h/mL.

And the Cmax (clinical; human, po, 150 mg)?
Its Cmax is 6950 ng/mL.

And the AUC(0-t) (clinical; human, po, 300 mg)?
The AUC(0-t) was 203 µg·h/mL.

What about the Cmax (clinical; human, po, 300 mg) of the same compound?
Its Cmax is 13900 ng/mL.

And the AUC(0-t) (clinical; human, po, 600 mg)?
The AUC(0-t) was 378 µg·h/mL.

What about the Cmax (clinical; human, po, 600 mg) of the same compound?
Its Cmax is 24500 ng/mL.

What about the AUC(0-t) (clinical; human, po, 800 mg) of the same compound?
The AUC(0-t) was 413 µg·h/mL.

What about the Cmax (clinical; human, po, 800 mg) of the same compound?
Its Cmax is 22700 ng/mL.

What about the AUC(0-t) (clinical; human, po, 1200 mg) of the same compound?
The AUC(0-t) was 599 µg·h/mL.

What about the Cmax (clinical; human, po, 1200 mg) of the same compound?
Its Cmax is 32700 ng/mL.

What about the absorption (clinical; po) of the same compound?
Its absorption is “rapid absorption”.

What about the “microglia depletion in the cortex” value (microglia; 10 mg/kg b.i.d.) of the same compound?
The value was “not effective”.

What about the “reduction of microglial markers in spinal cord (qPCR)” value (microglia; 10 mg/kg b.i.d.) of the same compound?
Its value is “small but non-significant effect”.

What about the “microglia depleted in spinal cord (qPCR of microglial markers)” value (microglia; 50 mg/kg b.i.d.) of the same compound?
Its value is “approximately 55%”.

What about the “microglia depleted in the cortex” value (microglia; 50 mg/kg b.i.d.) of the same compound?
Its value is “approximately 25%”.

What about the “microglia depleted in spinal cord (qPCR of microglial markers)” value (microglia; 80 mg/kg b.i.d.) of the same compound?
Its value is roughly 85%.

And the “microglia depleted in the cortex” value (microglia; 80 mg/kg b.i.d.)?
The value was roughly 75%.

And the CSF-1 plasma levels (CSF-1R)?
The CSF-1 plasma levels was “statistically significant increase”.

What about the TAM in tumor ([1]; after 10 and 14 days of treatment) of the same compound?
Its TAM in tumor is “significant decrease”.

What about the Tregs in tumor ([1]; day 10 after treatment start) of the same compound?
Its Tregs in tumor is “transient decrease”.

What about the TREM2 plasma values (Soluble TREM2; end of off-treatment week) of the same compound?
Its TREM2 plasma values is “in the range of control values at end of off-treatment week”.

And the TREM2 plasma values (Soluble TREM2; end of on-treatment weeks)?
Its TREM2 plasma values is “decreased at end of on-treatment weeks”.

And the “decrease of soluble TREM2 in CSF” value (Soluble TREM2; continuous dosing 3 months)?
The value was “about 25 fold”.

And the “time for plasma TREM2 to return to baseline after cessation of dosing” value (Soluble TREM2; continuous dosing regimen)?
Its value is no more than 7 days.

What about the “soluble TREM2 values at end of recovery phase” value (Soluble TREM2; high daily and high on/off treatment groups) of the same compound?
Its value is “returned to that of untreated controls”.

What about the “plasma TREM2, remaining” value (Soluble TREM2; mid-continuous (60 mg/kg/day) and high continuous (200 mg/kg/day) daily oral dosing) of the same compound?
The value was 40-45 % of the predose value.

What about the “decrease of soluble TREM2 in CSF” value (Soluble TREM2; on-off dosing 3 months) of the same compound?
The value was “about 4.6 fold”.

And the “drop of exposures following washout” value ([2]; 169 mg/kg qd 5 days, then 3 or 7 days washout)?
Its value is “more than 1000 fold”.

What about the “accumulation with daily dosing (blood and brain exposures)” value ([2]; 169 mg/kg qd, consecutive dosing days) of the same compound?
Its value is “lack of accumulation”.

And the “dose dependence of blood and brain exposures” value ([2]; 7 to 169 mg/kg, 5 consecutive days)?
The value was “linear increases in both blood and brain exposures with increased doses”.

What about the Kp at 3 h ([2]; mouse, brain relative to blood, 169 mg/kg qd, 1-5 days, 3 hours after final dose) of the same compound?
The Kp at 3 h was roughly 0.5.

And the Kp at 5 days ([2]; mouse, brain relative to blood, four lowest doses (7-100 mg/kg), 5 consecutive days)?
The Kp at 5 days was roughly 0.3.

What about the Kp at 5 days ([2]; mouse, brain relative to blood, highest dose (169 mg/kg), 5 consecutive days) of the same compound?
Its Kp at 5 days is roughly 0.55.

What about the Kp at 3 h [3] of the same compound?
Its Kp at 3 h is roughly 0.3.
